Results from patent US12540131B2 (Merck Sharp & Dohme LLC, priority 2019, dated 2026).

Each compound was assayed against GST tagged truncated human mutant G2019S LRRK2 (Homo sapiens (Human), UniProt Q5S007, G2019S) (assay: LRRK2 Km ATP LanthaScreen Assay). Conditions: G2019S LRRK2, 134 μM ATP (Km ATP), mean values.
Type: biochemical
How it was run: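 Enzyme (GST-tagged, truncated) was preincubated with compound for 15 min at RT in 50 mM Tris pH 8.5, 10 mM MgCl2, 0.01% Brij-35, 1 mM EGTA, 2 mM DTT and 0.05 mM orthovanadate. Fluorescein-LRRKtide and 134 μM ATP (Km) were then added for 90 min. EDTA and Tb-anti-pERM antibody stopped the reaction; the TR-FRET 520/495 ratio gave 4-parameter IC50s, reported as mean pIC50.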

GST tagged truncated human mutant G2019S LRRK2, sequence (Q5S007 970-2527 G2019S): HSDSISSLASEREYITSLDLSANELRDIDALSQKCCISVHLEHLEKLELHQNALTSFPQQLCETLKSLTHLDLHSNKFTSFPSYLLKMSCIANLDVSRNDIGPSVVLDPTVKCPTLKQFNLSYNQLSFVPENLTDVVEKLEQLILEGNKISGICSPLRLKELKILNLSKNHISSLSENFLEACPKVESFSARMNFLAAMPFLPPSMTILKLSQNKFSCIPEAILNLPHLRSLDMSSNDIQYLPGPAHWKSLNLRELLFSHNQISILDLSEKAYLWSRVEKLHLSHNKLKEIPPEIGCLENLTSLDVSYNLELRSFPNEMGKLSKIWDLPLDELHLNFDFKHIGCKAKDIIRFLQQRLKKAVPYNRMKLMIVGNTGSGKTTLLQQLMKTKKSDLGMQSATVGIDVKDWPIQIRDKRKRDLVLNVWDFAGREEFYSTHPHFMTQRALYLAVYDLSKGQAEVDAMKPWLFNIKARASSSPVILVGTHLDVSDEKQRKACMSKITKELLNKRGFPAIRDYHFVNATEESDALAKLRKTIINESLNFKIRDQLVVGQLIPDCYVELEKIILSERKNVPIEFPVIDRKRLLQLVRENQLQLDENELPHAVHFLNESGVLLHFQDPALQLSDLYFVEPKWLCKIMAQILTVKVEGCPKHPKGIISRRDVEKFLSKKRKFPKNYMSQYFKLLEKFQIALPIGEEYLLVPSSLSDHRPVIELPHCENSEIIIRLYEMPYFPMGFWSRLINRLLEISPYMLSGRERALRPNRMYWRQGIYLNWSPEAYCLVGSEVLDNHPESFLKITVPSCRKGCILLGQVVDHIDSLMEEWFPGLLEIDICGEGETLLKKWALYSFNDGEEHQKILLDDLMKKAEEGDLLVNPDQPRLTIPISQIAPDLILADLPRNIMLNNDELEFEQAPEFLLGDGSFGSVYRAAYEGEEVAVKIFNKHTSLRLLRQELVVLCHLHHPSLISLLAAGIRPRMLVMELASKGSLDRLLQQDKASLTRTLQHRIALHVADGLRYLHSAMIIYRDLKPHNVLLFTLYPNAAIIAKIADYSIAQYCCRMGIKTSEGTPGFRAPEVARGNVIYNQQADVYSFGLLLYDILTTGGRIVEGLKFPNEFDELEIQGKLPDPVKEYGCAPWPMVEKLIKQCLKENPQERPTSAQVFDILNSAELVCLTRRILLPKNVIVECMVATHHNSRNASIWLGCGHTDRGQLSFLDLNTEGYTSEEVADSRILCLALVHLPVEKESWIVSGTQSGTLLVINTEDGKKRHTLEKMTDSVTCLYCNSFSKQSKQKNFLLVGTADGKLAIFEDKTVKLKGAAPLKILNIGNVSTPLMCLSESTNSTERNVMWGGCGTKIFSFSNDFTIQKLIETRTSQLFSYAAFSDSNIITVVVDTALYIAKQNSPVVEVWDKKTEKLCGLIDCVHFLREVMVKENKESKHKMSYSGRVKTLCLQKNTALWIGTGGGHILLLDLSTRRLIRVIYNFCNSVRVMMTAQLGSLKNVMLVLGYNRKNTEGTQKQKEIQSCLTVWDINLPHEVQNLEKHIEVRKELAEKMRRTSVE

SMILES	LRRK2 pIC50
F[C@H]1CN(C2COC2)C[C@@H]1c1cc2nc(Nc3cnn(C4CC4)c3Cl)ncc2cc1Cl (single isomer, unassigned) [Ex-4.41, (3S,4R) or (3R,4S) 6-chloro-N-(5-chloro-1-cyclopropyl-1H-pyrazol-4-yl)-7-[4-fluoro-1-(oxetan-3-yl)pyrrolidin-3-yl]quinazolin-2-amine]	7.31
F[C@@H]1CN(C2COC2)C[C@H]1c1cc2nc(Nc3cnn(C4CC4)c3Cl)ncc2cc1Cl (single isomer, unassigned) [Ex-4.42, (3S,4R) or (3R,4S) 6-chloro-N-(5-chloro-1-cyclopropyl-1H-pyrazol-4-yl)-7-[4-fluoro-1-(oxetan-3-yl)pyrrolidin-3-yl]quinazolin-2-amine]	7.21
CC(C)(O)Cn1ncc(Nc2ncc3cc(Cl)c([C@@H]4CCN(C5COC5)C[C@H]4F)cc3n2)c1Cl (single isomer, unassigned) [Ex-4.43, (3S,4S) or (3R,4R) 1-[5-chloro-4-({6-chloro-7-[3-fluoro-1-(oxetan-3-yl)piperidin-4-yl]quinazolin-2-yl}amino)-1H-pyrazol-1-yl]-2-methylpropan-2-ol]	9.16
CC(C)(O)Cn1ncc(Nc2ncc3cc(Cl)c([C@H]4CCN(C5COC5)C[C@@H]4F)cc3n2)c1Cl (single isomer, unassigned) [Ex-4.44, (3S,4S) or (3R,4R) 1-[5-chloro-4-({6-chloro-7-[3-fluoro-1-(oxetan-3-yl)piperidin-4-yl]quinazolin-2-yl}amino)-1H-pyrazol-1-yl]-2-methylpropan-2-ol]	>9.20
CC1OCC1N1CCC(c2cc3nc(Nc4cnn(C5CC5)c4Cl)ncc3cc2Cl)CC1 (single isomer, unassigned) [Ex-4.46, (2R,3R) or (2S,3S) or (2S,3R) or (2R,3S) 6-chloro-N-(5-chloro-1-cyclopropyl-1H-pyrazol-4-yl)-7-[1-(2-methyloxetan-3-yl)piperidin-4-yl]quinazolin-2-amine]	9.13
CC1OCC1N1CCC(c2cc3nc(Nc4cnn(C5CC5)c4Cl)ncc3cc2Cl)CC1 (single isomer, unassigned) [Ex-4.47, (2R,3R) or (2S,3S) or (2S,3R) or (2R,3S) 6-chloro-N-(5-chloro-1-cyclopropyl-1H-pyrazol-4-yl)-7-[1-(2-methyloxetan-3-yl)piperidin-4-yl]quinazolin-2-amine]	7.62
Cc1cc(Nc2ncc3cc(Cl)c([C@@H]4CCN(C5COC5)C[C@H]4F)cc3n2)sn1 (single isomer, unassigned) [Ex-4.50, (3S,4S) or (3R,4R) 6-chloro-7-[3-fluoro-1-(oxetan-3-yl)piperidin-4-yl]-N-(3-methyl-1,2-thiazol-5-yl)quinazolin-2-amine]	>9.20
Cc1cc(Nc2ncc3cc(Cl)c([C@H]4CCN(C5COC5)C[C@@H]4F)cc3n2)sn1 (single isomer, unassigned) [Ex-4.51, (3S,4S) or (3R,4R) 6-chloro-7-[3-fluoro-1-(oxetan-3-yl)piperidin-4-yl]-N-(3-methyl-1,2-thiazol-5-yl)quinazolin-2-amine]	>9.20
Cc1cc(Nc2ncc3cc(Cl)c([C@H]4CCN(C)C[C@@H]4F)cc3n2)sn1 (single isomer, unassigned) [Ex-4.53, (3S,4S) or (3R,4R) 6-chloro-7-(3-fluoro-1-methylpiperidin-4-yl)-N-(3-methyl-1,2-thiazol-5-yl)quinazolin-2-amine]	>9.20
CC(n1ncc(Nc2ncc3cc(Cl)c([C@@H]4CCN(C)C[C@H]4F)cc3n2)c1Cl)C(C)(C)O (single isomer, unassigned) [Ex-4.60, (R)(3S,4S) or (R)(3R,4R) or (S)(3S,4S) or (S)(3R,4R) 3-(5-chloro-4-{[6-chloro-7-(3-fluoro-1-methylpiperidin-4-yl)quinazolin-2-yl]amino}-1H-pyrazol-1-yl)-2-methylbutan-2-ol]	8.69
CC(n1ncc(Nc2ncc3cc(Cl)c([C@@H]4CCN(C)C[C@H]4F)cc3n2)c1Cl)C(C)(C)O (single isomer, unassigned) [Ex-4.61, (R)(3S,4S) or (R)(3R,4R) or (S)(3S,4S) or (S)(3R,4R) 3-(5-chloro-4-{[6-chloro-7-(3-fluoro-1-methylpiperidin-4-yl)quinazolin-2-yl]amino}-1H-pyrazol-1-yl)-2-methylbutan-2-ol]	8.80
CC(n1ncc(Nc2ncc3cc(Cl)c(C4CCN(C5COC5)CC4)cc3n2)c1Cl)C(C)(C)O (single isomer, unassigned) [Ex-4.62, (8) or (R) 3-[5-chloro-4-({6-chloro-7-[1-(oxetan-3-yl)piperidin-4-yl]quinazolin-2-yl}amino)-1H-pyrazol-1-yl]-2-methylbutan-2-ol]	>9.20
Cc1c(Nc2ncc3cc(Cl)c([C@@H]4CCN(C5COC5)C[C@H]4F)cc3n2)cnn1CC(C)(C)O (single isomer, unassigned) [Ex-4.63, (3S,4S) or (3R,4R) 1-[4-({6-chloro-7-[3-fluoro-1-(oxetan-3-yl)piperidin-4-yl]quinazolin-2-yl}amino)-5-methyl-1H-pyrazol-1-yl]-2-methylpropan-2-ol]	8.83
Cc1c(Nc2ncc3cc(Cl)c([C@H]4CCN(C5COC5)C[C@@H]4F)cc3n2)cnn1CC(C)(C)O (single isomer, unassigned) [Ex-4.64, (3S,4S) or (3R,4R) 1-[4-({6-chloro-7-[3-fluoro-1-(oxetan-3-yl)piperidin-4-yl]quinazolin-2-yl}amino)-5-methyl-1H-pyrazol-1-yl]-2-methylpropan-2-ol]	8.85
CC(n1ncc(Nc2ncc3cc(Cl)c([C@@H]4CCN(C5COC5)C[C@H]4F)cc3n2)c1Cl)C(C)(C)O (single isomer, unassigned) [Ex-4.65, (R)(3S,4S) or (R)(3R,4R) or (S)(3S,4S) or (S)(3R,4R) 3-[5-chloro-4-({6-chloro-7-[3-fluoro-1-(oxetan-3-yl)piperidin-4-yl]quinazolin-2-yl}amino)-1H-pyrazol-1-yl]-2-methylbutan-2-ol]	8.91
CC(n1ncc(Nc2ncc3cc(Cl)c([C@H]4CCN(C)C[C@@H]4F)cc3n2)c1Cl)C(C)(C)O (single isomer, unassigned) [Ex-4.66, (R)(3S,4S) or (R)(3R,4R) or (S)(3S,4S) or (S)(3R,4R) 3-(5-chloro-4-{[6-chloro-7-(3-fluoro-1-methylpiperidin-4-yl)quinazolin-2-yl]amino}-1H-pyrazol-1-yl)-2-methylbutan-2-ol]	8.70

Same assay, conditions: G2019S LRRK2, 134 μM ATP (Km ATP), mean values; read-out: LRRK2 pIC50 (converted)

SMILES	IC50
Clc1cc2cnc(Nc3cnn(C4CC4)c3Cl)nc2cc1C1CCN(C2CCOC2)CC1 (single isomer, unassigned) [Ex-4.48, (S) or (R) 6-chloro-N-(5-chloro-1-cyclopropyl-1H-pyrazol-4-yl)-7-[1-(oxolan-3-yl)piperidin-4-yl]quinazolin-2-amine]	0.891 nM
Clc1cc2cnc(Nc3cnn(C4CC4)c3Cl)nc2cc1C1CCN(C2CCOC2)CC1 (single isomer, unassigned) [Ex-4.49, (S) or (R) 6-chloro-N-(5-chloro-1-cyclopropyl-1H-pyrazol-4-yl)-7-[1-(oxolan-3-yl)piperidin-4-yl]quinazolin-2-amine]	< 0.631 nM
